Test results: patent US6734188B1, “Composition for treatment of constipation and irritable bowel syndrome” (priority 1999, dated 2004)

Tests used:
[1] = test system: healthy, non-smoking volunteers; test: Gut transit time study with radio opaque markers, oral naloxone with or without oral codeine (Example 1); type: in vivo, human; settings: for Gut transit time, Maximum / Gut transit time, Mean / Gut transit time, Median / Gut transit time, Minimum: codeine 30 mg bd
Method: The study consisted of four 10-day study periods, with at least two weeks between each, which were in a randomised order and the capsules being administered daily in a double blind manner. […] The capsules were administered twice a day (“bd”).
The study protocol was as follows: On day 0, subjects were given capsule B and on days 1 to 9, were given capsules A and B. On days 3 to 6, the subjects took transit markers; packaged in distinctly coloured capsules, each containing 20 different shaped radio opaque marker pellets (Dunn Clinical Nutrition). From day 7, the subjects' next two bowel motions were collected. A normal diet was adhered to throughout the study period and recorded on days 3 to 6.

[2] = test system: male volunteers; test: Gut transit time study, fixed doses of naloxone with or without codeine (Example 2); type: in vivo, human; settings: naloxone 5, 10 and 20 mg bd, Gelucire 53/10:42/12 95:5, Eudragit LS coated; with 30 mg bd codeine in second week
Method: In a further study, the procedure of Example 1 was substantially followed using Gelucire™ 53/10 & Gelucire™ 42/12 95:5 as the polyglycolised glyceride matrix.
The gut transit time was measured at the end of the first week. During the second week, each volunteer was also given 30 mg bd codeine and gut transit times measured again at the end of the second week.

[3] = test system: patient with Irritable Bowel Syndrome; settings: administered intermittently, similar dosage form to Example 3
[4] = after parenteral administration; cited from earlier work
[5] = test system: patients with advanced cancer; settings: patients with advanced cancer treated with an opioid analgesic; cited from earlier work
[6] = in vivo; cited from earlier work
[7] = 8 patients whose transit time was increased by codeine (n = 8), naloxone 10 mg bd
[8] = all patients (n = 12), oral capsules twice a day, naloxone 10 mg bd
[9] = all patients (n = 12), oral capsules twice a day, naloxone 10 mg bd (Gelucire 50/13:42/12 82.5:17.5, enteric coated)

| Structure (SMILES) | Gut transit time, Maximum [1, 7] [h] | Gut transit time, Mean [1, 7] [h] | Gut transit time, Median [1, 7] [h] | Gut transit time, Minimum [1, 7] [h] | Gut transit time, Maximum [1, 8] [h] | Gut transit time, Mean [1, 8] [h] | Gut transit time, Median [1, 8] [h] | Gut transit time, Minimum [1, 9] [h] | Effect on gut transit time (in words) ([1]; Example 1, naloxone 10 mg bd alone or with codeine 30 mg bd) | Effect on gut transit time (in words) [2] | Clinical outcome in irritable bowel syndrome [3] | Plasma half-life [4] | Laxative effect [5] | Crossing of the blood-brain barrier [6] |
| --- | --- | --- | --- | --- | --- | --- | --- | --- | --- | --- | --- | --- | --- | --- |
| COc1ccc2c3c1O[C@H]1[C@@H](O)C=C[C@H]4[C@@H](C2)N(C)CC[C@@]341 [Codeine, codeine phosphate] | 84.00 | 66.17 | 67.85 | 50.42 | 84.00 | 57.27 | 56.76 | 25.22 | – | – | – | – | – | – |
| C=CCN1CC[C@]23c4c5ccc(O)c4O[C@H]2C(=O)CC[C@@]3(O)[C@H]1C5 [Naloxone, 17-allyl-6-deoxy-7,8-dihydro-14-hydroxy-6-oxonormorphine] | 63.91 | 41.41 | 37.95 | 27.40 | 63.91 | 42.13 | 38.85 | 27.40 | reduced gut transit time | accelerate gut transit time | substantial clinical benefit | about 1 h | produce a laxative effect | – |
| C[N@+]1(CC2CC2)CC[C@]23c4c5ccc(O)c4O[C@H]2C(=O)CC[C@@]3(O)[C@H]1C5 [methylnaltrexone] | – | – | – | – | – | – | – | – | – | – | – | – | – | do not cross the blood-brain barrier to a significant extent |
